Data from PubChem BioAssay (NCI).
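How tested: cells in 96-well plates exposed to compound for 48 hours at five concentrations. GI50: concentration for 50% inhibition of growth. Definition used: TGI = concentration required for complete inhibition of growth.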

Assays:
Experiment in all cases: NCI-60 cell line screen, 48 h
HCT-15 colon = system: HCT-15 colon
K-562 leukemia = system: K-562 leukemia
NCI-H226 lung = system: NCI-H226 lung
OVCAR-5 ovarian = system: OVCAR-5 ovarian
OVCAR-8 ovarian = system: OVCAR-8 ovarian
RXF 393 renal = system: RXF 393 renal
SK-MEL-28 melanoma = system: SK-MEL-28 melanoma
SK-MEL-5 melanoma = system: SK-MEL-5 melanoma
T-47D breast = system: T-47D breast
UACC-257 melanoma = system: UACC-257 melanoma

Structure (SMILES) | GI50 (HCT-15 colon) [nM] | TGI (HCT-15 colon) [µM] | GI50 (K-562 leukemia) [nM] | TGI (K-562 leukemia) [µM] | GI50 (NCI-H226 lung) [µM] | TGI (NCI-H226 lung) [µM] | GI50 (OVCAR-5 ovarian) [nM] | TGI (OVCAR-5 ovarian) [µM] | GI50 (OVCAR-8 ovarian) [nM] | TGI (OVCAR-8 ovarian) [µM] | GI50 (RXF 393 renal) [nM] | TGI (RXF 393 renal) [µM] | GI50 (SK-MEL-28 melanoma) [nM] | TGI (SK-MEL-28 melanoma) [µM] | GI50 (SK-MEL-5 melanoma) [nM] | TGI (SK-MEL-5 melanoma) [µM] | GI50 (T-47D breast) [nM] | TGI (T-47D breast) [µM] | GI50 (UACC-257 melanoma) [nM] | TGI (UACC-257 melanoma) [µM]
CN(C)CCNC(=O)NC[C@H]1CC[C@@H]2[C@H](O1)c1cc(C(F)(F)F)ccc1N[C@H]2c1ccccc1 | 1020 | 16.5 | 75.7 | 14.8 | 15.1 | 43.4 | 609 | 22.6 | 233 | > 100 | 249 | 18.4 | 1630 | 21.5 | 99.9 | 15.8 | 371 | 17.8 | 10500 | 23.9
C=C1C(=O)O[C@H]2[C@H]1CC/C(COC(=O)NCCCCCCCCNC(=O)OC/C1=C/CC[C@@]3(C)O[C@H]3[C@H]3OC(=O)C(=C)[C@@H]3CC1)=C\CC[C@@]1(C)O[C@@H]21 | 346 | 1.41 | 349 | 1.37 | 1.81 | 4.39 | 269 | 0.912 | 326 | 1.24 | 162 | 0.322 | 206 | 0.511 | 1210 | 2.59 | 323 | 0.915 | 848 | 2.82
CN1CCN(Cc2ccc(NC(=O)c3cncc(C#Cc4cnc(N)c5cnccc45)c3)cc2C(F)(F)F)CC1 | 721 | 6.31 | 5 | 0.732 | 0.115 | 4.54 | 162 | 4.39 | 253 | 8.09 | 147 | 0.565 | 93.7 | 0.394 | 277 | 0.952 | 410 | 9.13 | 161 | 1.45
CCCN1CCC(c2ccc(Nc3nc(Nc4cc(F)ccc4C(N)=O)c4cc[nH]c4n3)c(OC)c2)CC1 | 540 | 15.1 | 681 | 2.8 | 3.83 | 8.91 | 2780 | 9.48 | 2230 | 7.79 | 2890 | 6.31 | 4190 | 8.1 | 3410 | 6.63 | 4140 | 9.17 | 572 | 5.2
O=[N+]([O-])c1ccc(Sc2ccncn2)c([N+](=O)[O-])c1 | 3070 | 9.93 | 277 | 1.95 | 7.22 | 23.1 | 5250 | 17.7 | 3470 | 13.3 | 3990 | 11.7 | 4310 | 9.44 | 3270 | 11.7 | 1940 | 4.41 | 2810 | 9.37
COc1cccc(Nc2nccc(-c3cnn4ncccc34)n2)c1 | 69.7 | > 25 | 115 | > 25 | 0.0546 | 0.18 | 81.2 | > 25 | 68.1 | > 25 | 44.9 | 0.108 | 39.5 | 0.14 | 58.8 | 0.561 | 77.6 | 0.428 | 56.3 | 0.16
C/C(=N/Nc1nc(C)cc(=O)[nH]1)C(=O)O | – | > 100 | – | > 100 | – | > 100 | – | > 100 | – | > 100 | – | > 100 | – | > 100 | – | > 100 | – | > 100 | – | > 100
C[CH2][Sn]([CH2]C)([O]C(=O)c1ccc(OC)c(OC)c1OC)[O]C(=O)c1ccc(OC)c(OC)c1OC | 61200 | > 100 | 21700 | > 74.6 | 19.7 | 46 | > 85400 | > 100 | > 100000 | > 100 | 14400 | 30.6 | 26600 | > 69 | 99200 | > 100 | 12700 | 26.1 | > 78900 | > 100
CN(C)CCOC(=O)Nc1nc2ccc(Sc3ccccc3)cc2[nH]1 | 1960 | 16.2 | 613 | 13.7 | 4.61 | 28.1 | 4220 | 21.1 | 4260 | 26.8 | 1850 | 6.6 | 9190 | 24.3 | 3310 | 12.5 | 4660 | 21.4 | 13400 | 29.4
C[C@@H](Oc1cc(-n2cnc3ccc(OC[C@@H](O)CO)cc32)sc1C(N)=O)c1ccccc1Cl | 1880 | > 25 | 80.4 | > 25 | 2.82 | > 25 | 414 | > 25 | 109 | > 25 | 65.3 | 2.08 | 229 | > 25 | 326 | 5.14 | 1220 | > 25 | 291 | > 25
Nc1c(F)cc(-c2nc3cc(F)ccc3[se]2)cc1Br | 47.6 | > 100 | 49200 | > 100 | 0.0484 | 2.06 | 67 | > 33.5 | 42100 | > 100 | 2280 | 42.8 | > 100000 | > 100 | 104 | > 100 | 57.8 | 0.631 | > 100000 | > 100
CCn1ccc(NS(=O)(=O)c2ccc(N)cc2)nc1=O | > 100000 | > 100 | > 100000 | > 100 | > 100 | > 100 | > 100000 | > 100 | > 100000 | > 100 | > 100000 | > 100 | > 100000 | > 100 | > 100000 | > 100 | > 100000 | > 100 | > 100000 | > 100
